Values quoted from earlier work in patent publication US11331258B2, “Method for dyeing keratinous material, comprising the use of an organosilicon compound, an oligoalkylsiloxane and a dyeing compound” (Henkel AG & Co. KGaA, priority 2019, dated 2022).
Read-outs that look alike come from different tables or passages of the source.

| solubility in water (25° C.) | solubility in water (at about 25° C.) | Compound |
| --- | --- | --- |
| about 2.5 g/L |  | Nc1cc(S(=O)(=O)[O-])cc2cc(S(=O)(=O)[O-])c(N=Nc3ccccc3)c(O)c12.[Na+].[Na+] [Acid Red 33, diantrium salt of 5-amino-4-hydroxy-3-(phenylazo)-naphthalene-2,7-disulphonate] |
| more than 20 % by weight |  | CCN(Cc1cccc(S(=O)(=O)[O-])c1)c1ccc(C(=C2C=CC(=[N+](CC)Cc3cccc(S(=O)(=O)[O-])c3)C=C2)c2ccccc2S(=O)(=O)[O-])cc1.[Na+].[Na+] [Acid Blue 9] |
|  | highly soluble | O=C([O-])C1=NN(c2ccc(S(=O)(=O)[O-])cc2)C(=O)C1N=Nc1ccc(S(=O)(=O)[O-])cc1.[Na+].[Na+].[Na+] (stereo not shown) [Acid Yellow 23, trisodium salt of 4,5-dihydro-5-oxo-1-(4-sulfophenyl)-4-((4-sulfophenyl)azo)-1H-pyrazole-3-carboxylic acid] |

| Compound | solubility in water (25° C.) | solubility in water (at about 25° C.) |
| --- | --- | --- |
| O=S(=O)([O-])c1ccc(N=Nc2c(O)ccc3ccccc23)cc1.[Na+] [Acid Orange 7, sodium salt of 4-[(2-hydroxy-1-naphthyl)azo]benzene sulphonate] | more than 7 g/L |  |
